In PMC7757987, “Antitumor Activity and Mechanism Study of Riluzole and Its Derivatives” (Iranian Journal of Pharmaceutical Research : IJPR, 2020):

Experiments:
[1] = system: Bax, Bcl-2, Caspase-3, Cleaved caspase-3, PI3K in HeLa cells; test: Western blot assay; format: cell-based, human; settings: 24 h; for Ratio of Bax/Bcl-2: HeLa, control 0.072
Procedure: HeLa cells were seeded into 6-well plates at 10^6 cells per well with different concentrations of compound 4a (12.5, 25 and 50 μmol/L) and incubated at 37 ℃ for 24 h in the presence of 10% FBS. The controls were treated with vehicle (0.5% DMSO). The cells were lysed into ice-cold cell lysis buffer for 30 min and centrifuged at 13000 g for 15 min at 4 ℃. The protein concentrations of the supernatant were determined by a BCA protein Assay Kit. Equal amounts of protein lysates were separated on 10% SDS-PAGE (sodium dodecyl sulfate-polyacrylamide gel electrophoresis) and transferred onto PVDF membranes. The membranes were blocked with 5% non-fat milk in TBST (0.1% Tween 20 in TBS) buffer for 2 h, incubated with primary antibodies at 1:1000 dilutions at 4 ℃, and washed by TBST four times. Then, the membrane was immunobloted with Bax, Bcl-2, Caspase-3, Cleaved caspase-3, PI3K, and β-actin primary antibodies at 1:1000 dilutions at 4 °C for 12 h. After secondary incubation in horseradish peroxidase-conjugated secondary antibodies at 1:3000 at room temperature for 2 h, protein bands were visualized on X-ray film (Kodak, Japan) using ECL (Beyotime, China). The immunoblots were detected by densitometric analysis. Equal loading of protein in each lane was confirmed by probing with β-actin antibody ([24]).

[2] = system: HeLa cells; test: Flow cytometric analysis of cell apoptosis (annexin V-FITC/PI); format: cell-based, human; settings: 24 h, control 0.02%
Procedure: The cell apoptosis analysis was evaluated by using the annexin V-FITC apoptosis detection kit (Beyotime, China). Briefly, the HeLa cells (1×10^6 cells/well) were seeded into 6-well culture plates and incubated for 24 h. Then the cells were incubated for 24 h with the compound 4a (12.5, 25 and 50 μmol/L). The cells were then rinsed, resuspended in 60 μL binding buffer and incubated for 10 min with 5 μL annexin V-FITC at room temperature, followed by an addition of 120 μL binding buffer and 10 μL PI. The solutions were gently mixed and analyzed with the FACScan flow cytometry. The cells that were not treated were used as the control ([23]).

[3] = system: SP2/0 (mouse myeloma cell line); test: CCK-8 anti-proliferative assay, SP2/0; format: cell-based
Procedure: (§1) HeLa (human cervical cancer cell line), HepG2 (human liver cancer cell line), SP2/0 (mouse myeloma cell line), and LO2 (human normal liver cell line) were cultured in DMEM medium. Each medium was supplemented with 10% fetal bovine serum, 1% L-glutamine and 1% penicillin/streptomycin solution. The cell lines were kept in the incubator at 37 ℃ in a humidified atmosphere (90% RH) containing 5% CO2. […] The cell lines SP2/0 and MCF-7 were obtained from Laboratory Center of Shaanxi Province People’s Hospital.
(§2) 2×10^3 cells per well were planted into 96-well plates in 100 μL growth medium and incubated for 24 h. […] The mixture was incubated at 37 ℃ under a humidified 5% CO2 atmosphere. After incubation, 10 μL CCK-8 solution was added to each well and the cells were further incubated for 2 h at 37 ℃ according to the CCK-8 Technical Manual. Then, the OD value for each well was read at wavelength 450 nm to determine the cell viability on a microplate reader (Synergy HT, USA). […] The independent experiment was repeated at least three times. The percentage of growth inhibition was calculated as follows according to reference ([18]),
(§3) % of growth inhibition = [1 - absorbance of treated cells/absorbance of untreated cells] × 100%

[4] = system: MCF-7 (human breast cancer cell line); test: CCK-8 anti-proliferative assay, MCF-7; format: cell-based
Procedure: as §1, §2, §3

[5] = system: HeLa cells; test: Flow cytometric analysis of the cell cycle (PI); format: cell-based, human; settings: 24 h, control 3.66%
Procedure: Cell cycle assay was performed using the cell cycle and apoptosis analysis kit (Beyotime, China) and following the manufacturer’s instructions. The HeLa cells were treated with the indicated concentrations of compound 4a (12.5, 25 and 50 μmol/L) for 24 h. Next, the cells were harvested and washed twice with PBS. The cells were fixed with cold 70% ethanol for 12 h at 4 ℃ and were harvested and centrifuged at 1000 g for 5 min. Then, the cell density was adjusted to 1×10^6 cells/mL with PBS. Finally, the cells were stained with a propidium iodide (PI) solution (50 μg/mL). The number of cells in each phase of the cell cycle was analyzed by flow cytometry (FACSCalibur; BD Bioscience, USA).

[6] = system: HeLa cells; test: Scratch wound healing (anti-migration) assay; format: cell-based, human; settings: 25 μmol/L, 24 h
Procedure: Once the monolayer was formed, a small scratch was made in the plate using a 10 μL pipette tip (0 h, day 1). The monolayer was once washed with PBS to remove debris or the detached cells from the monolayer. […] Images were taken using an inverted microscope ([19]). The experiments were performed in triplicate.
The relative scratch healing rate was calculated as follows according to reference ([20]),
Scratch healing rate = (scratch width at 0 h – the remaining scratch width at 24 h)/scratch width in 0 h×100%

[7] = system: HeLa cells; test: Cell morphological assessment by Hoechst 33258 staining; format: cell-based, human; settings: HeLa, 12.5, 25 and 50 μmol/L, 24 h
Procedure: The cell morphological assessment was carried out as described by Wang S ([21]). Morphological changes, such as chromosomal condensation and fragmentation in the nuclei of HeLa, were observed by Hoechst 33258 staining. In brief, HeLa cells were seeded at a concentration of 1×10^6 cells/well in 6-well plate and treated with compound 4a (12.5, 25 and 50 μmol/L) for 24 h. Subsequently, the cells were harvested and washed once with PBS and then fixed with 4% paraformaldehyde in PBS for 10 min. After staining with 10 mg/L Hoechst 33258 for 5 min, the cells were visualized under a fluorescent microscope (Nikon, Japan).

[8] = system: HepG2 (human liver cancer cell line); test: CCK-8 anti-proliferative assay, HepG2; format: cell-based
Procedure: as §1, §2, §3

[9] = system: LO2 (human normal liver cell line); test: CCK-8 cytotoxicity assay, normal LO2 cells; format: cell-based; settings: CCK-8
Procedure: as §1, §2, §3

[10] = CCK-8 cytotoxicity assay, normal LO2 cells; format: cell-based, human; settings: human, LO2 normal liver cells; CCK-8, 48 h, normal liver cells; read-out: Cytotoxicity (IC50) L02
Procedure: as §1, §2, §3

[11] = system: HeLa (human cervical cancer cell line); test: CCK-8 anti-proliferative assay, HeLa; format: cell-based
Procedure: as §1, §2, §3

CCNc1nc2ccc(OC(F)(F)F)cc2s1 [Compound 4a, 2-(N-ethylamine)-6-trifluoromethoxy-benzothiazole]
melting point: 133 to 134 °C | Ratio of Bax/Bcl-2 ([1]; 12.5μM): 0.087 | Ratio of Bax/Bcl-2 ([1]; 25μM): 1.092 | Ratio of Bax/Bcl-2 ([1]; 50μM): 1.929 | Expression level of Caspase-3 ([1]; HeLa, 12.5, 25 and 50 μmol/L): not remarkably concentration-dependent change | Expression level of PI3K ([1]; HeLa, 12.5, 25 and 50 μmol/L): not remarkably concentration-dependent change | Expression of Bcl-2 ([1]; HeLa, 12.5, 25 and 50 μmol/L): reduced | Level of Bax ([1]; HeLa, 12.5, 25 and 50 μmol/L): increased | Level of Cleaved caspase-3 ([1]; HeLa, 12.5, 25 and 50 μmol/L): increased | Early apoptotic rate (LR quadrant) ([2]; 12.5 μmol/L): 4.76% | Early apoptotic rate (LR quadrant) ([2]; 25 μmol/L): 9.63% | Early apoptotic rate (LR quadrant) ([2]; 50 μmol/L): 19.81% | Selectivity index (SI) SP2/0 ([3]; IC50 LO2 / IC50 SP2/0): 1.27 | IC50 ([3]; Mus musculus, CCK-8, 48 h, read-out: Cytotoxicity (IC50) SP2/0): 51.1 ± 2.73 µM | IC50 ([4]; Homo sapiens, MCF7, CCK-8, 48 h, read-out: Cytotoxicity (IC50) MCF-7): 7.72 ± 0.53 µM | Selectivity index (SI) MCF-7 ([4]; IC50 LO2 / IC50 MCF-7): 8.41 | Cells in the G2/M phase ([5]; 12.5 μmol/L): 3.85% | Cells in the G2/M phase ([5]; 25 μmol/L): 6.63% | Cells in the G2/M phase ([5]; 50 μmol/L): 8.00% | Relative scratch healing rate [6]: less than 20% | Effect on HeLa cell migration ([6]; versus control group): significantly slower | Nuclear morphology (Hoechst 33258) [7]: nuclear condensation and fragmentation | IC50 ([8]; Homo sapiens, HepG2, CCK-8, 48 h, read-out: Cytotoxicity (IC50) HepG2): 33.7 ± 1.04 µM | Selectivity index (SI) HepG2 ([8]; IC50 LO2 / IC50 HepG2): 1.93 | Concentration up to which nontoxic to LO2 cells [9]: up to 65 μmol/L | IC50 at 48 h [10]: 65 ± 4.38 µM | IC50 ([11]; Homo sapiens, HeLa, CCK-8, 48 h, read-out: Cytotoxicity (IC50) HeLa): 7.76 ± 0.45 µM | Selectivity index (SI) HeLa ([11]; IC50 LO2 / IC50 HeLa): 8.37
